Experimental data as given in ChEMBL document CHEMBL3826966, “A chromatography-free isolation of rohitukine from leaves of Dysoxylum binectariferum: Evaluation for in vitro cytotoxicity, Cdk inhibition and physicochemical properties” (Bioorg Med Chem Lett, 2016).
≈ marks a conversion by molar mass, not a printed value.

Legend:
[1] = Thermodynamic equilibrium solubility in stimulated gastric fluid at 120 ug/ml at pH 1.2 by HPLC analysis; type: ADME; conditions: simulated gastric fluid, read-out: Therm_solubility
[2] = molecular target: Serine/threonine-protein kinase PAK 5 (Homo sapiens) (UniProt Q9P286); assay: Inhibition of human PAK5 (2 to 719 residues) assessed as remaining enzyme activity at 50 uM after 30 mins by 33P-ATP filter-binding assay
[3] = molecular target: Insulin receptor-related protein (Homo sapiens) (UniProt P14616); assay: Inhibition of human IRR (944 to 1236 residues) assessed as remaining enzyme activity at 50 uM after 30 mins by 33P-ATP filter-binding assay
[4] = molecular target: Tyrosine-protein kinase CSK (Homo sapiens) (UniProt P41240); assay: Inhibition of human CSK (1 to 450 residues) assessed as remaining enzyme activity at 50 uM after 30 mins by 33P-ATP filter-binding assay
Tyrosine-protein kinase CSK (Homo sapiens), sequence (P41240 2-450 limits assumed): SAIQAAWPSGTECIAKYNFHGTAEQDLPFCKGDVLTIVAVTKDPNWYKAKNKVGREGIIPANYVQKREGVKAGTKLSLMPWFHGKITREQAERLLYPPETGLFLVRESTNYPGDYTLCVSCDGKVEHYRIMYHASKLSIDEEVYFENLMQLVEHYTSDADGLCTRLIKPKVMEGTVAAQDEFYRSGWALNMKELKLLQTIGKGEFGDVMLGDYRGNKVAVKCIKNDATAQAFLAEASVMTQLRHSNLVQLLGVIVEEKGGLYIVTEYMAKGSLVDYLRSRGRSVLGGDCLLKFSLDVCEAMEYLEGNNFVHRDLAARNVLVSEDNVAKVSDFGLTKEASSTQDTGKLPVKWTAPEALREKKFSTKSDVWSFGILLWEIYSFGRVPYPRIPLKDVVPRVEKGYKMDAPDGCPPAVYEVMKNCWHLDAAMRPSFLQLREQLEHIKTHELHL

[5] = molecular target: Protein-tyrosine kinase 6 (Homo sapiens) (UniProt Q13882); assay: Inhibition of human BRK (1 to 451 residues) assessed as remaining enzyme activity at 50 uM after 30 mins by 33P-ATP filter-binding assay
Protein-tyrosine kinase 6 (Homo sapiens), sequence (Q13882 whole entry, looked up, the tested form may be a part): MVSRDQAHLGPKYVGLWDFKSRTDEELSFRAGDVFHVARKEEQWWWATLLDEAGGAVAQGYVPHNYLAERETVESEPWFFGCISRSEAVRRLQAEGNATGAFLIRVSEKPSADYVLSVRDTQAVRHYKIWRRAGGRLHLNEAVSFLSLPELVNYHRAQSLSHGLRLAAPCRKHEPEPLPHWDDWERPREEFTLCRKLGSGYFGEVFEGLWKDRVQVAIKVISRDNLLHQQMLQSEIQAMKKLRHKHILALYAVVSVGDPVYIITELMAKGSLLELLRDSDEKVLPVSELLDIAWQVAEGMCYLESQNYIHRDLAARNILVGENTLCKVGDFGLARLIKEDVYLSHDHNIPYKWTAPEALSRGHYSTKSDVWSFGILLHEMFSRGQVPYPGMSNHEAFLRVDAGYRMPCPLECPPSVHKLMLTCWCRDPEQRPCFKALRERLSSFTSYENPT

[6] = molecular target: Dual specificity tyrosine-phosphorylation-regulated kinase 1A (Homo sapiens) (UniProt Q13627); assay: Inhibition of human DYRK1A (1 to 502 residues) assessed as remaining enzyme activity at 50 uM after 30 mins by 33P-ATP filter-binding assay
[7] = molecular target: Dual specificity mitogen-activated protein kinase kinase 6 (Homo sapiens) (UniProt P52564); assay: Inhibition of human MKK6 (2 to 334 residues) assessed as remaining enzyme activity at 50 uM after 30 mins by 33P-ATP filter-binding assay
Dual specificity mitogen-activated protein kinase kinase 6 (Homo sapiens), sequence (P52564 whole entry, the tested form may be a part): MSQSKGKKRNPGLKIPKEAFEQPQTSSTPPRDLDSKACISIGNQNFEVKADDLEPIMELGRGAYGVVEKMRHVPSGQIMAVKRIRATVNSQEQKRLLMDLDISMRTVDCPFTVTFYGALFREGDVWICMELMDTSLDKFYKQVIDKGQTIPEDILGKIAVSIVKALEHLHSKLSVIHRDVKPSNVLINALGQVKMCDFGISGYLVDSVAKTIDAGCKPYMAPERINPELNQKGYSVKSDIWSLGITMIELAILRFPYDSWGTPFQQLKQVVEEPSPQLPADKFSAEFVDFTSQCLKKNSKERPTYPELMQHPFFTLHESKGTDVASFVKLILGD

[8] = molecular target: Ephrin type-B receptor 1 (Homo sapiens) (UniProt P54762); assay: Inhibition of human EPHB1 (565 to 984 residues) assessed as remaining enzyme activity at 50 uM after 30 mins by 33P-ATP filter-binding assay
[9] = Cytotoxicity against human THP1 cells assessed as cell growth inhibition after 48 hrs by MTT assay; type: functional; conditions: THP-1, 48 h
[10] = molecular target: Ribosomal protein S6 kinase alpha-1 (Homo sapiens) (UniProt Q15418); assay: Inhibition of human RSK1 (1 to 735 residues) assessed as remaining enzyme activity at 50 uM after 30 mins by 33P-ATP filter-binding assay
[11] = molecular target: Maternal embryonic leucine zipper kinase (Homo sapiens) (UniProt Q14680); assay: Inhibition of human MELK (2 to 651 residues) assessed as remaining enzyme activity at 50 uM after 30 mins by 33P-ATP filter-binding assay
[12] = Stability in pH 6.8 buffer at 120 ug/ml after 8 hrs by RP-HPLC analysis; type: physicochemical; conditions: pH 6.8, 8 h
[13] = molecular target: Ribosomal protein S6 kinase alpha-5 (Homo sapiens) (UniProt O75582); assay: Inhibition of human MSK1 (2 to 802 residues) assessed as remaining enzyme activity at 50 uM after 30 mins by 33P-ATP filter-binding assay
[14] = molecular target: Serine/threonine-protein kinase PAK 2 (Homo sapiens) (UniProt Q13177); assay: Inhibition of human PAK2 assessed as remaining enzyme activity at 50 uM after 30 mins by 33P-ATP filter-binding assay
[15] = molecular target: MAP/microtubule affinity-regulating kinase 4 (Homo sapiens) (UniProt Q96L34); assay: Inhibition of human MARK4 (2 to 752 residues) assessed as remaining enzyme activity at 50 uM after 30 mins by 33P-ATP filter-binding assay
[16] = molecular target: Serine/threonine-protein kinase 33 (Homo sapiens) (UniProt Q9BYT3); assay: Inhibition of human STK33 (1 to 514 residues) assessed as remaining enzyme activity at 50 uM after 30 mins by 33P-ATP filter-binding assay
[17] = molecular target: Serine/threonine-protein kinase PAK 6 (Homo sapiens) (UniProt Q9NQU5); assay: Inhibition of human PAK6 (2 to 681 residues) assessed as remaining enzyme activity at 50 uM after 30 mins by 33P-ATP filter-binding assay
Serine/threonine-protein kinase PAK 6 (Homo sapiens), sequence (Q9NQU5 whole entry, looked up, the tested form may be a part): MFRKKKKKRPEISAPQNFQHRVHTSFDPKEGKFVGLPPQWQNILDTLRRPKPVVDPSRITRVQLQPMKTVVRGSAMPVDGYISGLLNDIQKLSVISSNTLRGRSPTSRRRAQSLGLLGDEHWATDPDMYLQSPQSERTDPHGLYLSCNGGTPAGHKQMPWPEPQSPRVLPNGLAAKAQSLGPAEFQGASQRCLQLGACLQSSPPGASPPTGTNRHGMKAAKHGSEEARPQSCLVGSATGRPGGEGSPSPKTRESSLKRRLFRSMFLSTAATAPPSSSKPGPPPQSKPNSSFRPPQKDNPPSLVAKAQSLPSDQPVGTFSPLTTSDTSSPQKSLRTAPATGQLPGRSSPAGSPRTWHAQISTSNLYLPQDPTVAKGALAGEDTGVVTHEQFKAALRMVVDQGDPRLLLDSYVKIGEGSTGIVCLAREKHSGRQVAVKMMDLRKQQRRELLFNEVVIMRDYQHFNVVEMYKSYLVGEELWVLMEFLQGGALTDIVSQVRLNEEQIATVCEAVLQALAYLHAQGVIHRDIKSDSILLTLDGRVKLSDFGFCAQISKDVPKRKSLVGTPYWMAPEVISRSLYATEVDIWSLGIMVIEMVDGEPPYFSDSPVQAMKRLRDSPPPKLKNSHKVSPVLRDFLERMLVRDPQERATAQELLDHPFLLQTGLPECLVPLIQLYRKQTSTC

[18] = Partition coefficient, logP of the compound in water/PBS buffer at 25 degC by retention time method; type: physicochemical
[19] = molecular target: Interleukin-1 receptor-associated kinase 1 (Homo sapiens) (UniProt P51617); assay: Inhibition of human IRAK1 (1 to 712 residues) assessed as remaining enzyme activity at 50 uM after 30 mins by 33P-ATP filter-binding assay
PSN1 = assay: Cytotoxicity against human PSN1 cells assessed as cell growth inhibition after 48 hrs by MTT assay; type: functional; conditions: PSN1, 48 h
[20] = molecular target: Mitogen-activated protein kinase kinase kinase 7 (Homo sapiens) (UniProt O43318); assay: Inhibition of human TAK1 (1 to 303 residues) assessed as remaining enzyme activity at 50 uM after 30 mins by 33P-ATP filter-binding assay
[21] = molecular target: Serine/threonine-protein kinase pim-3 (Homo sapiens) (UniProt Q86V86); assay: Inhibition of human PIM3 (2 to 326 residues) assessed as remaining enzyme activity at 50 uM after 30 mins by 33P-ATP filter-binding assay
[22] = Cytotoxicity against HEK293 cells assessed as cell growth inhibition after 48 hrs by MTT assay; type: cell-based; conditions: human
[23] = molecular target: High affinity nerve growth factor receptor (Homo sapiens) (UniProt P04629); assay: Inhibition of human TRKA (441 to 760 residues) assessed as remaining enzyme activity at 50 uM after 30 mins by 33P-ATP filter-binding assay
High affinity nerve growth factor receptor (Homo sapiens), sequence (P04629 33-796 limits assumed): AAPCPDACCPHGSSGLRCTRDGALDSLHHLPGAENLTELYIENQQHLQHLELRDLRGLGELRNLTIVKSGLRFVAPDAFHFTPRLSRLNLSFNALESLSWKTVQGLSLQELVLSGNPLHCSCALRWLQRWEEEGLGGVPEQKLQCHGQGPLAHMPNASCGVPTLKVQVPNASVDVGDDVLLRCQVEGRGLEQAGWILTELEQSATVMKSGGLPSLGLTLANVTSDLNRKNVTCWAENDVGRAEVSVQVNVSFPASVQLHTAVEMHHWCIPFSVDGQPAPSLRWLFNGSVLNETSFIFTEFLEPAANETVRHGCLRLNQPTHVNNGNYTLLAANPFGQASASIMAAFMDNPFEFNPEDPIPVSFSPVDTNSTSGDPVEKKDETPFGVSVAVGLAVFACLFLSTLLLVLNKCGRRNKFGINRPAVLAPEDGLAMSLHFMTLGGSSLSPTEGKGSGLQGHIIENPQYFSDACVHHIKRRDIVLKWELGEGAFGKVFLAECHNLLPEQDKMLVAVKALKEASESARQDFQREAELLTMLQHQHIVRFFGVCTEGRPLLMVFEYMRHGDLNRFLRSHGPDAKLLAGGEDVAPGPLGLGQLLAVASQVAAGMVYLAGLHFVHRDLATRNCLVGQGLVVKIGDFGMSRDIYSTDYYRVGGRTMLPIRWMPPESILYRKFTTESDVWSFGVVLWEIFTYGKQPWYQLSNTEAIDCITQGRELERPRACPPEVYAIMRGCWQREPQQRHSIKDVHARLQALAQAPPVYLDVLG

CDK9/cyclin T1 = CDK9/cyclin T1 (Homo sapiens, UniProt P50750); assay: Inhibition of human Cdk9/T1 using YSPTSPSYSPTSPSYSPTSPKKK peptide as substrate after 30 mins by 33P-ATP filter-binding assay; type: protein-complex assay
[24] = Cell cycle arrest in human HL60 cells assessed as accumulation at S phase at 1 uM (reference value: 36 %); type: functional, cell-based; conditions: HL-60
[25] = molecular target: Serine/threonine-protein kinase TAO1 (Homo sapiens) (UniProt Q7L7X3); assay: Inhibition of human TAO1 (1 to 356 residues) assessed as remaining enzyme activity at 50 uM after 30 mins by 33P-ATP filter-binding assay
Serine/threonine-protein kinase TAO1 (Homo sapiens), sequence (Q7L7X3 whole entry, the tested form may be a part): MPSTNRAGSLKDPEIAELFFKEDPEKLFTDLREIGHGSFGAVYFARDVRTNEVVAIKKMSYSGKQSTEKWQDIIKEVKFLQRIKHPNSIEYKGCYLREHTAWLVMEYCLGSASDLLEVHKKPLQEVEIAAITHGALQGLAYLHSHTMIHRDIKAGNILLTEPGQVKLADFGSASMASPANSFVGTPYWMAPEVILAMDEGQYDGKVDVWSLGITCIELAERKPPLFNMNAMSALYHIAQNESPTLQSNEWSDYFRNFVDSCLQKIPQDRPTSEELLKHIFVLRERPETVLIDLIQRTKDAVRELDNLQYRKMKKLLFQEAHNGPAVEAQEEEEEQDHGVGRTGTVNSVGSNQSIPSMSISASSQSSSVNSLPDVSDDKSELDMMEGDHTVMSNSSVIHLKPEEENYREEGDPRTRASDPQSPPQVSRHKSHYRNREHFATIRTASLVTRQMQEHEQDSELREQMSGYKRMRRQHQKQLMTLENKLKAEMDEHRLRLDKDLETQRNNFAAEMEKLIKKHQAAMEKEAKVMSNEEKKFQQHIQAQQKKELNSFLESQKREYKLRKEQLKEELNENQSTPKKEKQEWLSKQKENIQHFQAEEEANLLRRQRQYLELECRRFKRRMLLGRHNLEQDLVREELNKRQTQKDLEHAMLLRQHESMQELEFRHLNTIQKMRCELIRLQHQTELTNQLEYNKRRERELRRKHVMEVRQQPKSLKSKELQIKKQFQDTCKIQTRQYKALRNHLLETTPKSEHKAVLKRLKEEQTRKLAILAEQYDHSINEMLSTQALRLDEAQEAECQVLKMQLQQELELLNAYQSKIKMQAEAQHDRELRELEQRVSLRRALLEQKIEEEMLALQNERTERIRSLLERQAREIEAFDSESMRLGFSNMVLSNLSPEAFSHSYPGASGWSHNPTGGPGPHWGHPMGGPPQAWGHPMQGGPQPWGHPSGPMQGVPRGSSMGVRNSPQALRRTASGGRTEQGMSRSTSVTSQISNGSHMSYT

MDA-MB-468 = assay: Cytotoxicity against human MDA-MB-468 cells assessed as cell growth inhibition after 48 hrs by MTT assay; type: functional; conditions: MDA-MB-468, 48 h
[26] = Cytotoxicity against human HL60 cells assessed as cell growth inhibition after 48 hrs by MTT assay; type: functional; conditions: HL-60, 48 h
[27] = Cytotoxicity against human SNB75 cells assessed as cell growth inhibition after 48 hrs by MTT assay; type: functional; conditions: SNB-75, 48 h
[28] = molecular target: Serine/threonine-protein kinase Nek2 (Homo sapiens) (UniProt P51955); assay: Inhibition of human NEK2a (1 to 445 residues) assessed as remaining enzyme activity at 50 uM after 30 mins by 33P-ATP filter-binding assay
Serine/threonine-protein kinase Nek2 (Homo sapiens), sequence (P51955 whole entry, the tested form may be a part): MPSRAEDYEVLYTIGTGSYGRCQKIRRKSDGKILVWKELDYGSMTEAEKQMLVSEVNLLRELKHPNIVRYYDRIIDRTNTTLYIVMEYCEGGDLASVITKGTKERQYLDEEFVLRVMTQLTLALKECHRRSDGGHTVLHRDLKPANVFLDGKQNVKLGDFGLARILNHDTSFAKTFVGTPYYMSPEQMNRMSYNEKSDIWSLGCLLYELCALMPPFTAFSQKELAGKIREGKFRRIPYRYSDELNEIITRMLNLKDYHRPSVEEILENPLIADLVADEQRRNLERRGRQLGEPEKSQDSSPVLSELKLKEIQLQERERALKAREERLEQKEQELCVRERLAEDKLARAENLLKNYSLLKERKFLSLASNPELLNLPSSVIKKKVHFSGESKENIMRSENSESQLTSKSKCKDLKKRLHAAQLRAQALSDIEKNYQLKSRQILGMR

[29] = molecular target: Receptor-interacting serine/threonine-protein kinase 2 (Homo sapiens) (UniProt O43353); assay: Inhibition of human RIPK2 (2 to 311 residues) assessed as remaining enzyme activity at 50 uM after 30 mins by 33P-ATP filter-binding assay
Receptor-interacting serine/threonine-protein kinase 2 (Homo sapiens), sequence (O43353 whole entry, the tested form may be a part): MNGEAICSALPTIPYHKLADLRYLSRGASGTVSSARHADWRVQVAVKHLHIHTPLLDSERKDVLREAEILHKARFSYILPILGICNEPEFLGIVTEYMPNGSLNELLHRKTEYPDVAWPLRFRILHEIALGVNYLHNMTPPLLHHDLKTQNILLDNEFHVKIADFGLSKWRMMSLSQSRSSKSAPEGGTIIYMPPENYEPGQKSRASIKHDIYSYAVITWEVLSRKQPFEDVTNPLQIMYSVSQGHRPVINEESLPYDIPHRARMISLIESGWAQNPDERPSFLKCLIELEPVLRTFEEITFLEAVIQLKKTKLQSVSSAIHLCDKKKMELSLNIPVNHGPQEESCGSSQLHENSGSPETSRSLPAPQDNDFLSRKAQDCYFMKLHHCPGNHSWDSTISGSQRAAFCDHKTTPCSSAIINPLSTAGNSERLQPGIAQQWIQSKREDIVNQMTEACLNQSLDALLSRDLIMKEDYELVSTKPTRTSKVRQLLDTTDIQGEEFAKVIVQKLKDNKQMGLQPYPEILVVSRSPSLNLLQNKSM

**Q.** With Cc1cc(=O)c2c(O)cc(O)c([C@H]3CCN(C)C[C@H]3O)c2o1 [ROHITUKINE] as the molecule, how does the solubility thermodynamic [1] read?
**A.** The solubility thermodynamic was 33.4 mg/mL (≈ 109 mM).

**Q.** What about the Activity [2] of the same molecule?
**A.** Its Activity is 87%.

**Q.** And the Activity [3]?
**A.** Its Activity is 53%.

**Q.** And the Activity [4]?
**A.** The Activity was 79%.

**Q.** What about the Activity [5] of the same molecule?
**A.** The Activity was 93%.

**Q.** And the Activity [6]?
**A.** Its Activity is 27%.

**Q.** And the Activity [7]?
**A.** Its Activity is 89%.

**Q.** And the Activity [8]?
**A.** The Activity was 54%.

**Q.** What about the GI50 [9] of the same molecule?
**A.** The GI50 was 28 µM.

**Q.** What about the Activity [10] of the same molecule?
**A.** Its Activity is 31%.

**Q.** And the Activity [11]?
**A.** Its Activity is 80%.

**Q.** What about the Stability [12] of the same molecule?
**A.** Its Stability is “Stable”.

**Q.** And the Activity [13]?
**A.** The Activity was 30%.

**Q.** And the Activity [14]?
**A.** Its Activity is 88%.

**Q.** What about the Activity [15] of the same molecule?
**A.** Its Activity is 92%.

**Q.** What about the Activity [16] of the same molecule?
**A.** Its Activity is 54%.

**Q.** And the Activity [17]?
**A.** Its Activity is 79%.

**Q.** What about the logP [18] of the same molecule?
**A.** Its logP is 1.01.

**Q.** And the Activity [19]?
**A.** Its Activity is 55%.

**Q.** What about the GI50 (PSN1) of the same molecule?
**A.** Its GI50 is 23 µM.

**Q.** And the Activity [20]?
**A.** The Activity was 70%.

**Q.** What about the Activity [21] of the same molecule?
**A.** Its Activity is 12%.

**Q.** And the GI50 at 48 h [22]?
**A.** The GI50 at 48 h was > 50 µM.

**Q.** What about the Activity [23] of the same molecule?
**A.** The Activity was 89%.

**Q.** And the IC50 (CDK9/cyclin T1)?
**A.** Its IC50 is 0.3 µM.

**Q.** And the Activity [24]?
**A.** Its Activity is 50%.

**Q.** And the Activity [25]?
**A.** The Activity was 39%.

**Q.** And the GI50 (MDA-MB-468)?
**A.** Its GI50 is 17 µM.

**Q.** What about the GI50 [26] of the same molecule?
**A.** The GI50 was 10 µM.

**Q.** And the GI50 [27]?
**A.** Its GI50 is 22 µM.

**Q.** And the Activity [28]?
**A.** Its Activity is 89%.

**Q.** What about the Activity [29] of the same molecule?
**A.** The Activity was 63%.
